# Reference: patent US12662451B2, “Chemical compounds and uses thereof” (GLAXOSMITHKLINE INTELLECTUAL PROPERTY (NO.4) LIMITED, priority 2023, dated 2026)
# Biological target: T1, recombinant full-length WRN protein (1-1432) (Homo sapiens, UniProt Q14191)
# T1 construct: recombinant full-length WRN protein (1-1432)
# Assay: WRN unwinding activity, fluorogenic 384-well assay (Example A)
# Type: biochemical
# Settings: WRN unwinding activity, 4 hr; Table 2; read-out: 4 hr UNW pIC50 (converted)
# Summary of the method: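 Read-out is end-point unwinding of a fluorophore/quencher duplex (ex 525, em 598 nm) after 60 min with 200 μM ATP and 12 nM DNA (2× stocks), EDTA stop. Compound first sat 4 h with 200 pM WRN (2× stock) in pH 8.0 Tris buffer; four-parameter fit gives pIC50.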
# T1 sequence (Q14191 whole entry): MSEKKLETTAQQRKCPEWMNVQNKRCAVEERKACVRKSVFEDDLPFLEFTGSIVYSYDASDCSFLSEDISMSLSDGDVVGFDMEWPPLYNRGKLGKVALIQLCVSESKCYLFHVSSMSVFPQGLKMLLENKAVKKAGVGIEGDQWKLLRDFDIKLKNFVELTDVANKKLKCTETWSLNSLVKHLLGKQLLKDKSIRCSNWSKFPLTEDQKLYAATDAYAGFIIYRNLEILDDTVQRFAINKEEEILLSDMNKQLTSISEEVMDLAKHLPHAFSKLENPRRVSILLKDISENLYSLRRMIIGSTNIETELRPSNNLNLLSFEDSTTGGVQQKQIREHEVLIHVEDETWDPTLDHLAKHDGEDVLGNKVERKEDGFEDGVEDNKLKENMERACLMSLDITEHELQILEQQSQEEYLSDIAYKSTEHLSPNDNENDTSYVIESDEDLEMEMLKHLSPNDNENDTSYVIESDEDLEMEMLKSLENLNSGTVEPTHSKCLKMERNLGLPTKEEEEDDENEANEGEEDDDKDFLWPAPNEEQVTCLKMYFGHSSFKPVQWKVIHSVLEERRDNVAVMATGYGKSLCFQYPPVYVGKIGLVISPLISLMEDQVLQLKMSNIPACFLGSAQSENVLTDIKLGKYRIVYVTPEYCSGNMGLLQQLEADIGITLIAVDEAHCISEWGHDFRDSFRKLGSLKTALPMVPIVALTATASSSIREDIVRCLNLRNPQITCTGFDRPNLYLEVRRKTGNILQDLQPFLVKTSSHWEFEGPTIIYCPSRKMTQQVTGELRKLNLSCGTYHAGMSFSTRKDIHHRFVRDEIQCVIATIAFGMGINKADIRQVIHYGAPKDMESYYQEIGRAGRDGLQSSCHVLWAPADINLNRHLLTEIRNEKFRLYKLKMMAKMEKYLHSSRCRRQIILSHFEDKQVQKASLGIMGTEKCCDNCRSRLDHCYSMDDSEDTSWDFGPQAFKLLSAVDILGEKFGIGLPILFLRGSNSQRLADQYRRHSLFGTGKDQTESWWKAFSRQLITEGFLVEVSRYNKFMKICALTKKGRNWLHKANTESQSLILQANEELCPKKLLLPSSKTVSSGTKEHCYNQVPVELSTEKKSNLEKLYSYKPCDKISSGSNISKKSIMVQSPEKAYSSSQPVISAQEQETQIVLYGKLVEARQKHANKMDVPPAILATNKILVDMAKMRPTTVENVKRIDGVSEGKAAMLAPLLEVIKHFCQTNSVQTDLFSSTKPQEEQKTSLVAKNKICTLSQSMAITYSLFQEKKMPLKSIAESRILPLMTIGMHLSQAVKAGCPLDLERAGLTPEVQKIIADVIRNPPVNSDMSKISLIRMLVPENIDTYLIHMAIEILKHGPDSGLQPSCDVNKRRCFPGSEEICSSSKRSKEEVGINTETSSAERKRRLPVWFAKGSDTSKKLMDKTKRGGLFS
row,IC50 [nM],SMILES
1,2000,"N#Cc1cnnc(-c2ccc(C3CCCC(C(=O)Nc4ccc(C(F)(F)F)cc4F)[C@@H]3C(=O)O)cc2)c1 (stereo in doubt) [Example 39, (1R,2R,6S)-2-(4-(5-cyanopyridazin-3-yl)phenyl)-6-((2-fluoro-4-(trifluoromethyl)phenyl)carbamoyl)cyclohe xane-1-carboxylic acid]"
2,2510,"Cc1nc2cc(S(=O)(=O)N(C)c3ccc([C@@H]4C[C@@H](NCC(F)(F)F)C[C@H](C(=O)Nc5ccc(C(F)(F)F)cc5F)[C@H]4C(=O)O)cc3)ccc2n1C (stereo in doubt) [Example 335, rel-(1R,2R,4S,6S)-2-((2-fluoro-4-(trifluoromethyl)phenyl)carbamoyl)-4-((2,2,2-trifluoroethyl)amino)-6-(4-((N,1,2-trimethyl-1H-benzo[d]imidazole)-5-sulfonamido)phenyl)cyclohexane-1-carboxylic acid]"
3,15.8,"Cc1nc2cc(S(=O)(=O)N(C)c3ccc([C@H]4C[C@@H](O)C[C@@H](C(=O)Nc5ccc(C(F)(F)F)cc5F)[C@H]4C(=O)O)cc3)ccc2n1C (single isomer, unassigned) [Example 143]"
4,1580,"O=C(O)[C@@H]1[C@@H](c2ccc(CC3(CO)COC3)cc2)CCC[C@H]1C(=O)Nc1ccc(C(F)(F)F)cc1F [Example 68, (1R,2R,6S)-2-((2-fluoro-4-(trifluoromethyl)phenyl)carbamoyl)-6-(4-((3-(hydroxymethyl)oxetan-3-yl)methyl)phenyl)cyclohexane-1-carboxylic acid]"
5,794,"Cc1nc2cc(S(=O)(=O)N(C)c3ccc([C@@H]4C[C@H](OCC5CCC5)C[C@H](C(=O)Nc5ccc(C(F)(F)F)cc5F)[C@H]4C(=O)O)cc3)ccc2n1C (stereo in doubt) [Example 155, rel-(1R,2R,4R,6S)-4-(cyclobutylmethoxy)-2-((2-fluoro-4-(trifluoromethyl)phenyl)carbamoyl)-6-(4-((N,1,2-trimethyl-1H-benzo[d]imidazole)-5-sulfonamido)phenyl)cyclohexane-1-carboxylic acid]"
6,1260,"Cc1cc(N(C)S(=O)(=O)c2ccc3c(c2)nc(C)n3C)ccc1[C@@H]1CCC[C@H](C(=O)Nc2ccc(C(F)(F)F)cc2F)[C@H]1C(=O)O (stereo in doubt) [Example 385, rel-(1R,2R,6S)-2-((2-fluoro-4-(trifluoromethyl)phenyl)carbamoyl)-6-(2-methyl-4-((N,1,2-trimethyl-1H-benzo[d]imidazole)-5-sulfonamido)phenyl)cyclohexane-1-carboxylic acid]"
7,3980,"CC#Cc1cc([C@H]2CCC[C@@H](C(=O)Nc3ccc(C(F)(F)F)cc3F)[C@@H]2C(=O)O)ccc1C(F)(F)F (racemic) [Example 240, rac-(1R,2R,6S)-2-((2-fluoro-4-(trifluoromethyl)phenyl)carbamoyl)-6-(3-(prop-1-yn-1-yl)-4-(trifluoromethyl)phenyl)cyclohexane-1-carboxylic acid]"
8,126,"O=C(O)[C@@H]1[C@@H](c2ccc(C3CCCCC3)cc2)CCC[C@H]1C(=O)Nc1ccc(C(F)(F)F)cc1F [Example 62, (1R,2S,6R)-2-(4-cyclohexylphenyl)-6-((2-fluoro-4-(trifluoromethyl)phenyl)carbamoyl)cyclohexane-1-carboxylic acid]"
9,7.94,"O=C(O)[C@@H]1[C@@H](c2ccc(-c3csnc3CO)cc2)CCC[C@H]1C(=O)Nc1ccc(C(F)(F)F)cc1F [Example 50, (1R,2R,6S)-2-((2-fluoro-4-(trifluoromethyl)phenyl)carbamoyl)-6-(4-(3-(hydroxymethyl)isothiazol-4-yl)phenyl)cyclohexane-1-carboxylic acid]"
10,100000,"Cc1nc2cc(S(=O)(=O)N(C)c3ccc([C@H]4CCC[C@@H](CN(C)C5CCOCC5)[C@@H]4C(=O)O)cc3)ccc2n1C (racemic) [Example 202, rac-(1R,2R,6S)-2-((methyl(tetrahydro-2H-pyran-4-yl)amino)methyl)-6-(4-((N,1,2-trimethyl-1H-benzo[d]imidazole)-5-sulfonamido)phenyl)cyclohexane-1-carboxylic acid]"
11,6310,"O=C(Cc1cccc(-c2ccc([C@H]3CCC[C@@H](C(=O)Nc4ccc(C(F)(F)F)cc4F)[C@@H]3C(=O)O)cc2)c1)NC1CC1 [Example 20, (1R,2S,6R)-2-(3′-(2-(cyclopropylamino)-2-oxoethyl)-[1,1′-biphenyl]-4-yl)-6-((2-fluoro-4-(trifluoromethyl)phenyl)carbamoyl)cyclohexane-1-carboxylic acid]"
12,31.6,"Cc1nsc(-c2ccc([C@H]3CCC[C@@H](C(=O)Nc4ccc(C(F)(F)F)cc4F)[C@@H]3C(=O)O)cc2)c1O [Example 28, (1R,2R,6S)-2-((2-fluoro-4-(trifluoromethyl)phenyl)carbamoyl)-6-(4-(4-hydroxy-3-methylisothiazol-5-yl)phenyl)cyclohexane-1-carboxylic acid]"
13,63.1,"Cc1nc2cc(S(=O)(=O)N(C)c3ccc([C@@H]4C[C@@H](N)C[C@H](C(=O)Nc5ccc(C(F)(F)F)cc5F)[C@H]4C(=O)O)cc3)ccc2n1C (stereo in doubt) [Example 299, rel-(1R,2R,4S,6S)-4-amino-2-((2-fluoro-4-(trifluoromethyl)phenyl)carbamoyl)-6-(4-((N,1,2-trimethyl-1H-benzo[d]imidazole)-5-sulfonamido)phenyl)cyclohexane-1-carboxylic acid]"
14,251,"CC(C)(O)C#Cc1cc([C@H]2CCC[C@@H](C(=O)Nc3ccc(C(F)(F)F)cc3F)[C@@H]2C(=O)O)ccc1C(F)(F)F (racemic) [Example 239, rac-(1R,2R,6S)-2-((2-fluoro-4-(trifluoromethyl)phenyl)carbamoyl)-6-(3-(3-hydroxy-3-methylbut-1-yn-1-yl)-4-(trifluoromethyl)phenyl)cyclohexane-1-carboxylic acid]"
15,3160,"Cc1nc2cc(S(=O)(=O)N(C)c3ccc([C@@H]4C[C@H](Oc5ccccc5)C[C@H](C(=O)Nc5ccc(C(F)(F)F)cc5F)[C@H]4C(=O)O)cc3)ccc2n1C (single isomer, unassigned) [Example 153]"
16,10,"Cc1cscc1-c1ccc([C@H]2CCC[C@@H](C(=O)Nc3ccc(C(F)(F)F)cc3F)[C@@H]2C(=O)O)cc1 [Example 43, (1R,2R,6S)-2-((2-fluoro-4-(trifluoromethyl)phenyl)carbamoyl)-6-(4-(4-methylthiophen-3-yl)phenyl)cyclohexane-1-carboxylic acid]"
17,1000,"COc1cscc1-c1ccc([C@H]2CCC[C@@H](C(=O)Nc3ccc(C(F)(F)F)cc3F)[C@@H]2C(=O)O)cc1 [Example 42, (1R,2R,6S)-2-((2-fluoro-4-(trifluoromethyl)phenyl)carbamoyl)-6-(4-(4-methoxythiophen-3-yl)phenyl) cyclohexane-1-carboxylic acid]"
18,251,"CN(c1ccc([C@H]2CCC[C@@H](C(=O)Nc3ccc(C(F)(F)F)cc3F)[C@@H]2C(=O)O)cc1)S(=O)(=O)c1ccc2[nH]cnc2c1 (single isomer, unassigned) [Example 85]"
19,126,"O=C(O)[C@@H]1[C@@H](c2ccc(-c3cnn(CC4CC4)c3)cc2)CCC[C@H]1C(=O)Nc1ccc(C(F)(F)F)cc1F [Example 23, (1R,2S,6R)-2-(4-(1-(cyclopropylmethyl)-1H-pyrazol-4-yl)phenyl)-6-((2-fluoro-4-(trifluoromethyl)phenyl)carbamoyl)cyclohexane-1-carboxylic acid]"
20,63.1,"Cc1nc2cc(S(=O)(=O)N(C)c3ccc([C@@H]4C[C@H](N(C)C)C[C@H](C(=O)Nc5ccc(C(F)(F)F)cc5F)[C@H]4C(=O)O)cc3)ccc2n1C (stereo in doubt) [Example 252, rel-(1R,2R,4R,6S)-4-(dimethylamino)-2-((2-fluoro-4-(trifluoromethyl)phenyl)carbamoyl)-6-(4-((N,1,2-trimethyl-1H-benzo[d]imidazole)-5-sulfonamido)phenyl)cyclohexane-1-carboxylic acid]"
21,7940,"Cc1nc2cc(S(=O)(=O)N(C)c3ccc([C@@H]4C[C@@H](N5CCC(F)(F)CC5)C[C@H](C(=O)Nc5ccc(C(F)(F)F)cc5F)[C@H]4C(=O)O)cc3)ccc2n1C (relative stereo) [Example 341, rel-(1R,2R,4S,6S)-4-(4,4-difluoropiperidin-1-yl)-2-((2-fluoro-4-(trifluoromethyl)phenyl)carbamoyl)-6-(4-((N,1,2-trimethyl-1H-benzo[d]imidazole)-5-sulfonamido)phenyl)cyclohexane-1-carboxylic acid]"
22,31.6,"CC(=O)N(C)[C@H]1C[C@H](C(=O)Nc2ccc(C(F)(F)F)cc2F)[C@@H](C(=O)O)[C@H](c2ccc(N(C)S(=O)(=O)c3ccc4c(c3)nc(C)n4C)cc2)C1 (stereo in doubt) [Example 293, rel-(1R,2R,4S,6S)-2-((2-fluoro-4-(trifluoromethyl)phenyl)carbamoyl)-4-(N-methylacetamido)-6-(4-((N,1,2-trimethyl-1H-benzo[d]imidazole)-5-sulfonamido)phenyl)cyclohexane-1-carboxylic acid]"
23,316,"Cc1nc2cc(S(=O)(=O)N(C)c3ccc([C@@H]4C[C@H](N5CCC(F)(F)C5)C[C@H](C(=O)Nc5ccc(C(F)(F)F)cc5F)[C@H]4C(=O)O)cc3)ccc2n1C [Example 305, (1S,2S,4S,6R)-4-(3,3-difluoropyrrolidin-1-yl)-2-((2-fluoro-4-(trifluoromethyl)phenyl)carbamoyl)-6-(4-((N,1,2-trimethyl-1H-benzo[d]imidazole)-5-sulfonamido)phenyl)cyclohexane-1-carboxylic acid]"

row,SMILES,IC50 [nM]
1,"Cc1nc2cc(S(=O)(=O)N(C)c3ccc([C@@H]4C[C@H](OC5CCC5)C[C@H](C(=O)Nc5ccc(C(F)(F)F)cc5F)[C@H]4C(=O)O)cc3)ccc2n1C (stereo in doubt) [Example 326, rel-(1R,2R,4R,6S)-4-cyclobutoxy-2-((2-fluoro-4-(trifluoromethyl)phenyl)carbamoyl)-6-(4-((N,1,2-trimethyl-1H-benzo[d]imidazole)-5-sulfonamido)phenyl)cyclohexane-1-carboxylic acid]",631
